Measured values published in patent US10160762B2, “6-alkyl dihydropyrazolopyrimidinone compounds as PDE2 inhibitors” (Merck Sharp & Dohme Corp., priority 2015, dated 2018).
Read-outs that look alike come from different tables or passages of the source.

Target: T1, Rhesus PDE2A3 (Macaca mulatta, UniProt B3VTJ2)
T1 construct: made in house; host or cells: AD293 cells, transient transfection; supernatant of sonicated lysate
T1 sequence (B3VTJ2 1-941): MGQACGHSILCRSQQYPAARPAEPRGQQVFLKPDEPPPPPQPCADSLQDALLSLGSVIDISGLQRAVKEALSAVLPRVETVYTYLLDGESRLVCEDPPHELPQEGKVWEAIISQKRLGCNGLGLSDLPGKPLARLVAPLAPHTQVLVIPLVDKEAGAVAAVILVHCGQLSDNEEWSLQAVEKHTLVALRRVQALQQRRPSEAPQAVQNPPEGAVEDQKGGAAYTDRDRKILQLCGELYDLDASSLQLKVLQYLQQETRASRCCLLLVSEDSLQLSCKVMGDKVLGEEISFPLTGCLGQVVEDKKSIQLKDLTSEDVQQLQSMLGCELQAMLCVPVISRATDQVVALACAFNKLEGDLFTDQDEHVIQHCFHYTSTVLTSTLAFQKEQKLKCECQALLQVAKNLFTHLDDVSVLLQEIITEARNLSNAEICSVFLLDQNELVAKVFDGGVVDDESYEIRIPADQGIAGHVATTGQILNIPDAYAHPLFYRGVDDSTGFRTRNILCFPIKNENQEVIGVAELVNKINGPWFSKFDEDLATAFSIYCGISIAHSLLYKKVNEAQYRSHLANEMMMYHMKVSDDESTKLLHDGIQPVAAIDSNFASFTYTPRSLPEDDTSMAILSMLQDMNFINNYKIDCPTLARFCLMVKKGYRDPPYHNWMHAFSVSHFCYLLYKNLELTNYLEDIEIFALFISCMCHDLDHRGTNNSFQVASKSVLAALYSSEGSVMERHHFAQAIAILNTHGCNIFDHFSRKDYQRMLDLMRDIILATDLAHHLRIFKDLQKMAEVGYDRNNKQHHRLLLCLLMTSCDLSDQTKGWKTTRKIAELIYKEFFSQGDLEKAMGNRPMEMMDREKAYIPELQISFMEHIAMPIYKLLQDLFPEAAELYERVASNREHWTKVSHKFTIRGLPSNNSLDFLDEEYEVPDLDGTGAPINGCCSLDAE
Test: PDE2 fluorescence polarization (IMAP FP) inhibition assay, rhesus PDE2A3
Format: biochemical, rhesus macaque
Method: The activity of the compounds in accordance with the present invention as PDE2 inhibitors may be readily determined using a fluorescence polarization (FP) methodology (Huang, W., et al., J. Biomol Screen, 2002, 7: 215).
The PDE2 inhibitory activity of the compounds of the present invention was determined in accordance with the following experimental method. Rhesus PDE2A3 was amplified from rhesus macaque brain cDNA (Biochain Institute, Hayward, Calif.) using primers based on human PDE2A sequence (accession NM_002599.3) where the forward primer containing a Kozak consensus was 5′-[…]-3′ and the reverse primer was 5′-[…]-3′. Amplification with Easy-A High-Fidelity PCR cloning enzyme (Stratagene, La Jolla, Calif.) was 95° C. for 2 minutes followed by thirty three cycles of 95° C. for 40 seconds, 52° C. for 30 seconds, and 72° C. for 2 minutes 48 seconds. Final extension was 72° C. for 7 minutes. The PCR product was TA cloned into pcDNA3.3-TOPO (Invitrogen, Carlsbad, Calif.) according to standard protocol. A consensus sequence was developed from multiple clones and then deposited into GenBank (EU812167). AD293 cells (Stratagene, La Jolla, Calif.) with 70-80% confluency were transiently transfected with rhesus PDE2A3/pcDNA3.3-TOPO using Lipofectamine 2000 according to manufacturer specifications (Invitrogen, Carlsbad, Calif.). Cells were harvested 48 hours post-transfection and lysed by sonication (setting 3, 10×5 sec pulses) in a buffer containing 20 mM HEPES pH 7.4, 1 mM EDTA and Complete Protease Inhibitor Cocktail Tablets (Roche, Indianapolis, Ind.). Lysate was collected by centrifugation at 75,000×g for 20 minutes at 4° C. and supernatant utilized for evaluation of PDE2 activity. The fluorescence polarization assay for cyclic nucleotide phosphodiesterases was performed using an IMAP® FP kit supplied by Molecular Devices, Sunnyvale, Calif. (product #R8139). […] Assays were performed at room temperature in 384-well microtiter plates with an incubation volume of 20.2 μL. Solutions of test compounds were prepared in DMSO and serially diluted with DMSO to yield 8 μL of each of 10 solutions differing by 3-fold in concentration, at 32 serial dilutions per plate. […] 0% of inhibition is determined by using DMSO (1% final concentrations).
A Labcyte Echo 555 (Labcyte, Sunnyvale, Calif.) is used to dispense 200 nL from each well of the titration plate to the 384 well assay plate. Ten microliters of a solution of enzyme (1/2000 final dilution from aliquots; sufficient to produce 20% substrate conversion) was added to the assay plate. Next 10 uL of a separate solution of the substrate FAM-labeled cAMP (50 nM final concentration product # R7506 from Molecular Devices) and the activator cGMP (1 uM final concentration), prepared in the assay buffer (10 mM Tris HCl, pH 7.2, 10 mM MgCl2, 0.05% NaN3 0.01% Tween-20, and 1 mM DTT) was added to the assay plate and shaken to mix. The reaction is allowed to proceed at room temperature for 60 minutes. A binding solution is then made from the kit components, comprised of 80% Solution A, 20% Solution B and binding reagent at a volume of 1/600 the total binding solution. The enzymatic reaction is stopped by addition of 60 μL of the binding solution to each well of the assay plates and the plates are sealed and shaken for 30 seconds. The plate was incubated at room temperature for at least one hour prior to determining the fluorescence polarization (FP). The parallel and perpendicular fluorescence of each well of the plate was measured using a Tecan Genios Pro plate reader (Tecan, Switzerland) or Perkin Elmer EnVision™ plate reader (Waltham, Mass.). Fluorescence polarization (mP) was calculated from the parallel (S) and perpendicular (P) fluorescence of each sample well and the analogous values for the median control well, containing only substrate (So and Po), using the following equation: Polarization(mP)=1000*(S/So−P/Po)/(S/So+P/Po).

[1] = Lab B, read-out: Rhesus PDE2 Ki (nM) Lab B
[2] = Lab A, read-out: Rhesus PDE2 Ki (nM) Lab A

Compound | Ki [1] [nM] | Ki [2] [nM]
Cc1nc2c(c(CF)nn2C(C)c2ccc(S(F)(F)(F)(F)F)cc2)c(=O)[nH]1 (single isomer, unassigned) [Example 199] | 210 | –
COc1cccc(Cc2nc3c(c(CF)nn3C(C)c3ccc(C(F)(F)F)cc3)c(=O)[nH]2)c1 (single isomer, unassigned) [Example 220, (R)- or (S)-3-(Fluoromethyl)-6-(3-methoxybenzyl)-1-(1-(4-(trifluoromethyl)phenyl)ethyl)-1H-pyrazolo[3,4-d]pyrimidin-4(5H)-one] | 189 | –
Cc1nn(C(C)c2ccc(C(F)(F)F)cc2)c2nc(C3CCOC3)[nH]c(=O)c12 (stereo not shown) [Example 33, 3-Methyl-6-(tetrahydrofuran-3-yl)-1-(1-(4-(trifluoromethyl)phenyl)ethyl)-1H-pyrazolo[3,4-d]pyrimidin-4(5H)-one] | 531 | 386
Cc1nc2c(c(C)nn2C(CCCc2ccccc2)c2sc(C)nc2C)c(=O)[nH]1 (stereo not shown) [Example 339, 1-[1-(2,4-dimethyl-1,3-thiazol-5-yl)-4-phenylbutyl]-3,6-dimethyl-1,5-dihydro-4H-pyrazolo[3,4-d]pyrimidin-4-one] | – | 292
Cc1nc2c(c(CO)nn2C(c2ccc(C(F)(F)F)cc2)C2(C)CC2)c(=O)[nH]1 (single isomer, unassigned) [Example 25, (S)- or (R)-3-(Hydroxymethyl)-6-methyl-1-((1-methylcyclopropyl)(4-(trifluoromethyl)phenyl)methyl)-1H-pyrazolo[3,4-d]pyrimidin-4(5H)-one] | 160 | –
Cc1nc2c(c(CF)nn2C(c2ccc(C(F)(F)F)cc2)C(C)(C)C)c(=O)[nH]1 (single isomer, unassigned) [Example 233, (R)- or (S)-1-(2,2-Dimethyl-1-(4-(trifluoromethyl)phenyl)propyl)-3-(fluoromethyl)-6-methyl-1H-pyrazolo[3,4-d]pyrimidin-4(5H)-one] | 678 | –
CC(c1ccc(C(F)(F)F)cc1)n1nc(CO)c2c(=O)[nH]c(-c3cnn(C)c3)nc21 (racemic) [Example 295, 3-(Hydroxymethyl)-6-(1-methyl-1H-pyrazol-4-yl)-1-{1-[4-(trifluoromethyl)phenyl]ethyl}-1,5-dihydro-4H-pyrazolo[3,4-d]pyrimidin-4-one] | > 2970 | –
Cc1nc2c(c(CO)nn2C(c2ccc(C(F)(F)F)c(F)c2)C(C)C)c(=O)[nH]1 (single isomer, unassigned) [Example 86, (R)- or (S)-1-(1-(3-Fluoro-4-(trifluoromethyl)phenyl)-2-methylpropyl)-3-(hydroxymethyl)-6-methyl-1H-pyrazolo[3,4-d]pyrimidin-4(5H)-one] | 436 | –
Cc1nc2c(c(CO)nn2C(C)c2ccc(S(F)(F)(F)(F)F)cc2)c(=O)[nH]1 (single isomer, unassigned) [Example 76] | 330 | –
Cc1nc2c(c(CO)nn2C(c2ccc(C(F)(F)F)c(F)c2)C(C)(C)C)c(=O)[nH]1 (single isomer, unassigned) [Example 128, (R)- or (S)-1-(1-(3-Fluoro-4-(trifluoromethyl)phenyl)-2,2-dimethylpropyl)-3-(hydroxyl-methyl)-6-methyl-1H-pyrazolo-[3,4-d]pyrimidin-4(5H)-one] | 413 | –

Continued, values first:

Ki [1] [nM] | Ki [2] [nM] | Compound
283 | – | CC(=O)OCc1nn(C(C)c2ccc(C(F)(F)F)cc2)c2nc(C)[nH]c(=O)c12 (stereo not shown) [Example 319, (6-Methyl-4-oxo-1-(1-(4-(trifluoromethyl)phenyl)ethyl)-4,5-dihydro-1H-pyrazolo[3,4-d]pyrimidin-3-yl)methyl acetate]
245 | – | Cc1nc2c(c(CCO)nn2C(C)c2ccc(C(F)(F)F)cc2)c(=O)[nH]1 (single isomer, unassigned) [Example 249]
– | > 1000 | Cc1nc2c(c(C)nn2C(C)C(=O)Nc2ccc(C(F)(F)F)cc2)c(=O)[nH]1 (stereo not shown) [Example 334, 2-(3,6-Dimethyl-4-oxo-4,5-dihydropyrazolo[3,4-d]pyrimidin-1-yl)-N-(4-(trifluoromethyl)phenyl)propanamide]
~14500 | – | Cc1nc2c(c(CN)nn2C(C)c2ccc(C(F)(F)F)cc2)c(=O)[nH]1 (single isomer, unassigned) [Example 274]
– | 267 | COCCc1nc2c(c(C)nn2C(C)c2ccc(C(F)(F)F)cc2)c(=O)[nH]1 (stereo not shown) [Example 34, 6-(2-Methoxyethyl)-3-methyl-1-(1-(4-(trifluoromethyl)phenyl)ethyl)-1H-pyrazolo[3,4-d]pyrimidin-4(5H)-one]
– | > 1000 | Cc1nc2c(c(C)nn2CC(O)c2ccc(C(F)(F)F)cc2)c(=O)[nH]1 (stereo not shown) [Example 335, 1-(2-Hydroxy-2-(4-(trifluoromethyl)phenyl)ethyl)-3,6-dimethyl-1H-pyrazolo[3,4-d]pyrimidin-4(5H)-one]
– | 583 | Cc1nn(C(C)c2ccc(C(F)(F)F)cc2)c2nc(C(C)O)[nH]c(=O)c12 (stereo not shown) [Example 29, 6-(1-Hydroxyethyl)-3-methyl-1-(1-(4-(trifluoromethyl)phenyl)ethyl)-1H-pyrazolo[3,4-d]pyrimidin-4(5H)-one]
7660 | > 1000 | Cc1nc2c(c(C)nn2CC(C)(O)c2ccc(C(F)(F)F)cc2)c(=O)[nH]1 (stereo not shown) [Example 336, 1-(2-Hydroxy-2-(4-(trifluormethyl)phenyl)propyl)-3,6-dimethyl-1H-pyrazolo[4-d]pyrimidin-4(5H)-one]
1210 | – | Cc1nc2c(c(CS(C)(=O)=O)nn2C(C)c2ccc(C(F)(F)F)cc2)c(=O)[nH]1 (single isomer, unassigned) [Example 272]
289 | – | Cc1nc2c(c(CO)nn2C(c2ccc(C(F)(F)F)cc2)C(C)(C)C)c(=O)[nH]1 (single isomer, unassigned) [Example 82, (R)- or (S)-1-(2,2-Dimethyl-1-(4-(trifluoromethyl)phenyl)-propyl)-3-(hydroxymethyl)-6-methyl-1H-pyrazolo[3,4-d]pyrimidin-4(5H)-one]
